This test deals with γ-secretase (Homo sapiens (Human), UniProt P49768). The experiment in a line: Cellular γ-secretase assay (Aβ42 secretion, AlphaLisa). It is filed as cell-based. The note with it: inhibition of Aβ42 secretion; human neuroglioma H4 cells overexpressing human APP695 Swedish double mutation; 24 hr compound incubation. As for the experimental part:
Human neuroglioma H4 cells overexpressing human APP695 with the Swedish double mutation (K595N/M596L) were plated at 30,000 cells/well/100 μl in 96-well plates in IMDM media containing 10% FCS, 0.2 mg/l Hygromycin B and incubated at 37° C., 5% CO2.
3-4 hr post plating, compounds are a diluted in media and 50 μl is added as […] concentrate to achieve the final concentration. Compound incubation is performed for 24 hr. Final doses typically range from 4 μM down to 0.0013 μM in half-log steps resulting in an eight point dose response curve. Appropriate controls using vehicle only and reference compound were applied to this assay. The final concentration of Me2SO was 0.4%.
After incubation at 37° C., 5% CO2, the supernatant was subjected to quantification of secreted Aβ42 by the means of an AlphaLisa assay kit (Human Amyloid beta 1-42 Kit: Cat # AL203C, Perkin Elmer). 20 μl of the cell culture supernatant was transferred to an assay plate. Then 10 μl of a mixture of the AlphaLisa coupled capture antibody and the biotinylated detection antibody was added and incubated for 3 hours at room temperature while softly shaking the assay plate. After a further addition of 20 μl of the Donor beads the assay plate was incubated for 30 min at room temperature and constant shaking without exposure to direct light. The assay plate was then read on a Paradigm AlphaLisa Reader using the build-in program with excitation at 680 nm and emission at […]. The measured signals were then used to calculate IC50 values for inhibition of Aβ42 secretion by nonlinear regression fit analysis using XLfit 5.3 software (IDBS).
Regarding `CNc1nc(Nc2cnc(-n3cnc(C)c3)c(OC)c2)nc2c1C(C)(C)CN2c1ccc(F)cc1F` [Example 20, 7-(2,4-Difluorophenyl)-N2-(5-methoxy-6-(4-methyl-1H-imidazol-1-yl)pyridin-3-yl)-N4,5,5-trimethyl-6,7-dihydro-5H-pyrrolo[2,3-d]pyrimidine-2,4-diamine], the EC50 was found to be 8 nM.
In the case of `CNc1nc(Nc2cnc(-n3cnc(C)c3)c(OC)c2)nc2c1C(C)CN2c1ccc(F)cc1` (stereo not shown) [Example 40, 7-(4-Fluorophenyl)-N2-(5-methoxy-6-(4-methyl-1H-imidazol-1-yl)pyridin-3-yl)-N4,5-dimethyl-6,7-dihydro-5H-pyrrolo[2,3-d]pyrimidine-2,4-diamine], the concentration for a half-maximal effect (EC50) was found to be 6 nM.
`CNc1nc(Nc2ccc(-n3cnc(C)n3)c(OC)c2)nc2c1C(C)(C)CN2c1ccc(F)c(F)c1` [Example 8, 7-(3,4-Difluorophenyl)-N2-(3-methoxy-4-(3-methyl-1H-1,2,4-triazol-1-yl)phenyl)-N4,5,5-trimethyl-6,7-dihydro-5H-pyrrolo[2,3-d]pyrimidine-2,4-diamine] showed a concentration giving a half-maximal response (EC50) of 5 nM.
Under `CNc1nc(Nc2ccc(-n3cnc(C)n3)c(OC)c2)nc2c1C(C)(C)CCN2c1ccc(F)cc1` [Example 35, 8-(4-Fluorophenyl)-N2-(3-methoxy-4-(3-methyl-1H-1,2,4-triazol-1-yl)phenyl)-N4,5,5-trimethyl-5,6,7,8-tetrahydropyrido[2,3-d]pyrimidine-2,4-diamine] stands 13 nM.

By EC50 is commonly meant the concentration that produces a half-maximal response. A high value points to a less potent agent.

(Values after US10669276B2, “Fused pyrimidine derivatives” (Hoffmann-La Roche Inc., priority 2016, dated 2020).)
